Our source for the ΔGH values is patent US4411890A, “Synthetic peptides having pituitary growth hormone releasing activity” (Beckman Instruments, Inc., priority 1981, dated 1983).

One assay has as its system pituitaries. Put plainly: In vitro growth hormone release study (incubated rat pituitaries, GH by RIA). Format: cell-based. To be noted: GH released at I3, I4 (I5) minus P2, mean ± SEM. As to the method:
Female rats of the CD-1 strain were housed in a constant temperature room at 24° C. with 14 hours light and 10 hours darkness. The rats were fed Purina brand rat chow ab libitum. All studies were started between 0800 and 1000 hours.
Pituitaries were removed from 20 day old female rats. In each polytetrafluoroethylene beaker (10 ml) was incubated two pituitaries at 36° C. in 1 ml of lactated Ringer's solution in a Dubnoff Shaker (90 cycles/min.). All medium in each beaker was removed each hour (e.g., P1, P2, I3, I4, I5) and then fresh medium was added back to each beaker. Each medium removed was assayed for GH, in duplicate, by a standard radioimmunoassay (RIA).
The growth hormone agonist of Example 1 was not added to the incubation mediums employed during the first hour of the incubation period (P1) or to the incubation mediums employed during the second hour of the incubation period (P2). The growth hormone agonist of Example 1 was dissolved in dimethylsulfoxide (DMSO; 10:1, agonist:DMSO), added to each incubation medium employed during the third hour of the incubation period (I3), to each medium employed during the fourth hour of the incubation period (I4), and, when performed, to each medium employed during the fifth hour of the incubation period (I5). The release of growth hormone was recorded as ΔGH and calculated by subtracting the amount of GH released at P2 from that released at I3, I4, and, when performed, I5. The agonist activity was determined from the release at I3, I4, and, when performed, I5. The mean of the ΔGH values obtained from the three beakers per dosage level measured at I3, I4, and, when performed, I5 are set forth in Table VI.

Assay [1] concerns Female rats of The CD-1 strain. Kind of assay: In vivo growth hormone release study (subcutaneous injection, serum GH by RIA). The arrangement: species or system rat. To be noted: serum GH about 15 minutes after injection, 21 day old female rats, mean ± SEM. As to the method: Female rats of The CD-1 strain were housed in a constant temperature room at 24° C. with 14 hours light and 10 hours darkness. The rats were fed Purina brand rat chow ab libitum. All studies were started between 0800 and 1000 hours. Each female rat (21 days old; eight rats per dosage level shown in Table XXVI) was injected subcutaneously with a desired dosage of the peptide of Example 6. Approximately 15 minutes after injection, the rat was guillotined. A blood sample was collected from the guillotined rat. The blood sample was centrifuged and a serum sample was collected therefrom. Each serum sample was assayed for GH, in duplicate, by a standard radioimmunoassay (RIA).

Where [2] appears, read: dosage 1 ng/ml incubation medium.
Where [3] appears, read: dosage 3 ng/ml incubation medium.
The mark [4] stands for this setting: dosage 10 ng/ml incubation medium.
[5] abbreviates: dosage 1.0 μg/ml serum (so in the source).
Where [6] appears, read: dosage 3.0 μg/ml serum (so in the source).
Setting [7] is: dosage 10.0 μg/ml serum (so in the source).
The mark [8] stands for this setting: dosage 30.0 μg/ml serum (so in the source).
Where [9] appears, read: dosage 30 ng/ml incubation medium.
Where [10] appears, read: dosage 0.3 μg/ml serum (so in the source).

Where a SMILES comes first, the peptide text is derived from it.

Take `C[C@H](NC(=O)[C@@H](Cc1c[nH]c2ccccc12)NC(=O)[C@@H](N)Cc1c[nH]cn1)C(=O)N[C@@H](Cc1c[nH]c2ccccc12)C(=O)N[C@H](Cc1ccccc1)C(=O)N[C@@H](CCCNC(=N)N)C(N)=O` [H2 -His-D-Trp-Ala-Trp-D-Phe-Arg-NH2] (HELM PEPTIDE1{H.[dW].A.W.[dF].R.[am]}$$$$V2.0): the ΔGH in the assay with pituitaries (setting [2]) is 805 ± 152 ng/ml incubation medium; in the assay with pituitaries (setting [3]), 997 ± 249 ng/ml incubation medium; in the assay on pituitaries (setting [4]), 2,064 ± 346 ng/ml incubation medium; in assay [1] (setting [5]) it was 9.2 ± 3.4 ng/ml subcutaneous; in assay [1] (setting [6]), 32.2 ± 5.5 ng/ml subcutaneous; in assay [1] (setting [7]) it was 87.5 ± 31 ng/ml subcutaneous. This molecule also yielded a ΔGH in assay [1] (setting [8]) of 31.1 ± 3.4 ng/ml subcutaneous.

Turning to `C[C@H](NC(=O)[C@@H](Cc1c[nH]c2ccccc12)NC(=O)[C@@H](N)Cc1c[nH]cn1)C(=O)N[C@@H](Cc1c[nH]c2ccccc12)C(=O)N[C@H](Cc1ccccc1)C(=O)N[C@@H](CCCCN)C(N)=O` [H2 -His-D-Trp-Ala-Trp-D-Phe-Lys-NH2] (HELM PEPTIDE1{H.[dW].A.W.[dF].K.[am]}$$$$V2.0), the ΔGH is listed as 955 ± 272 ng/ml incubation medium in the assay on pituitaries (setting [2]); 1,603 ± 305 ng/ml incubation medium with pituitaries (setting [3]); 2,244 ± 173 ng/ml incubation medium in the assay on pituitaries (setting [4]); 2,198 ± 358 ng/ml incubation medium with pituitaries (setting [9]); 6 ± 4 ng/ml subcutaneous in assay [1] (setting [10]); 36 ± 15 ng/ml subcutaneous in assay [1] (setting [5]). Also, the ΔGH is given as 66 ± 15 ng/ml subcutaneous in assay [1] (setting [6]), 100 ± 19 ng/ml subcutaneous in assay [1] (setting [7]) and 122 ± 4 ng/ml subcutaneous in assay [1] (setting [8]).

On to H2 -His-D-Trp-Ala-Trp-D-Phe-Lys-OH, for which the ΔGH with pituitaries (setting [2]) was 467 ± 178 ng/ml incubation medium; in the assay on pituitaries (setting [4]) it was 330 ± 167 ng/ml incubation medium; with pituitaries (dosage 100 ng/ml incubation medium) it was 2,441 ± 353 ng/ml incubation medium; in assay [1] (setting [6]) it was 76 ± 24 ng/ml subcutaneous; in assay [1] (setting [7]), 119 ± 25 ng/ml subcutaneous; in assay [1] (setting [8]), 226 ± 43 ng/ml subcutaneous.

With `C[C@H](NC(=O)[C@@H](Cc1c[nH]c2ccccc12)NC(=O)[C@@H](N)Cc1c[nH]cn1)C(=O)N[C@@H](Cc1c[nH]c2ccccc12)C(=O)N[C@H](Cc1ccccc1)C(=O)N[C@@H](CCC(=O)O)C(N)=O` [H2 -His-D-Trp-Ala-Trp-D-Phe-Glu-NH2] (HELM PEPTIDE1{H.[dW].A.W.[dF].E.[am]}$$$$V2.0), the ΔGH is given as -78 ± 72 ng/ml incubation medium with pituitaries (setting [2]); -294 ± 75 ng/ml incubation medium in the assay with pituitaries (setting [3]); -243 ± 71 ng/ml incubation medium in the assay with pituitaries (setting [4]); 117 ± 41 ng/ml incubation medium in the assay on pituitaries (setting [9]); 0.10 ± 0 ng/ml subcutaneous in assay [1] (setting [5]); 1.50 ± 0.56 ng/ml subcutaneous in assay [1] (setting [6]). Further, the ΔGH in assay [1] (setting [7]) is on record as 1.4 ± 0.78 ng/ml subcutaneous; in assay [1] (setting [8]) it was 8.06 ± 2.68 ng/ml subcutaneous.

With “H2 -His-D-Trp-Ala-Trp-D-Phe-Lys-NHCH2 CH3”, the ΔGH in the assay with pituitaries (setting [2]) is reported as 726 ± 115 ng/ml incubation medium; with pituitaries (setting [4]), 1,688 ± 300 ng/ml incubation medium; in assay [1] (setting [10]), 13.0 ± 5 ng/ml subcutaneous; in assay [1] (setting [7]) it was 119 ± 12 ng/ml subcutaneous.
